The values below come from ChEMBL document CHEMBL1139011, “Inhibition of hepatitis B virus (HBV) replication by pyrimidines bearing an acyclic moiety: effect on wild-type and mutant HBV” (J Med Chem, 2006).

Experiment [1] concerns Hepatitis B virus. Nature of the experiment: Inhibition of wild type HBV transfected in human hepatoblastoma 2.2.15 cells at 10 ug/mL. The experiment is classed as functional. The note with it: HepG2 2.2.15.
For experiment [2], the system named is Duck hepatitis B virus. Nature of the experiment: Inhibition of duck HBV transfected in primary duck hepatocytes at 10 ug/mL. The format is functional. As to conditions: Hepatocyte.
Another experiment relates to Vero. Kind of experiment: Cytotoxicity against Vero cell by MTT assay. The format is functional. As to conditions: Chlorocebus sabaeus.
The subject of a further experiment is HepG2. Kind of experiment: Cytotoxicity against HepG2 cell by MTT assay. The experiment is classed as functional. As to conditions: Homo sapiens. (In general: Formazan colour is commonly taken as a measure of viable cells.)
Experiment [3] relates to Duck hepatitis B virus. Kind of experiment: Inhibition of duck HBV transfected in primary duck hepatocytes. The experiment is classed as functional, organism-based. The note with it: Hepatocyte.
Experiment [4] deals with Hepatitis B virus. Kind of experiment: Inhibition of HBV M204I mutant transfected in B1 cell line at 10 ug/mL. The experiment is classed as functional.
The subject of experiment [5] is Hepatitis B virus. Nature of the experiment: Inhibition of wild type HBV transfected in human hepatoblastoma 2.2.15 cells. The experiment is classed as functional, organism-based. As to conditions: HepG2 2.2.15.
Experiment [6] deals with Hepatitis B virus. Kind of experiment: Inhibition of HBV L180M/ M204V mutant transfected in D88 cell line at 10 ug/mL. The format is functional.
Experiment [7] has as its system Hepatitis B virus. Kind of experiment: Inhibition of HBV L180M/ M204V mutant transfected in D88 cell line. The format is functional, organism-based.
The subject of experiment [8] is Hepatitis B virus. Nature of the experiment: Inhibition of HBV M204I mutant transfected in B1 cell line. The experiment is classed as functional, organism-based.
Another experiment relates to West Nile virus. Nature of the experiment: Inhibitory activity against West Nile virus. The experiment is classed as functional, organism-based.

Broadly, the inhibition is the percentage by which the read-out fell short of the control. Low readings indicate a response near the control, high ones a response far below the control. As a reminder, the CC50 is the concentration giving 50% cytotoxicity. Broadly, the EC50 is the concentration needed to bring the measured effect to its halfway point. Lower therefore signals greater potency.

In the case of `Nc1cn(COCCO)c(=O)[nH]c1=O`, the inhibition at 10 µg/mL with Hepatitis B virus [1] is 50%; in the experiment on Duck hepatitis B virus [2], 65%; in the experiment on Hepatitis B virus [4] it was 30%; with Hepatitis B virus [6], 30%. The CC50 in the experiment on Vero and in the experiment with HepG2 was greater than 497 µM in each case. In addition, the concentration for a half-maximal effect (EC50) with Duck hepatitis B virus [3] turned out to be 5 µM; in the experiment with Hepatitis B virus [5], 50 µM.
For the compound `Cc1c([N+](=O)[O-])c(=O)[nH]c(=O)n1COCCO`, the inhibition at 10 µg/mL with Hepatitis B virus [1] was 60%; with Duck hepatitis B virus [2], 68%; with Hepatitis B virus [4], 25%; with Hepatitis B virus [6] it was 20%. The CC50 in the experiment on Vero and in the experiment on HepG2 was greater than 408 µM each time. In addition, the concentration giving a half-maximal response (EC50) with Duck hepatitis B virus [3] and in the experiment on Hepatitis B virus [5] was 20.4 µM in each case.
With `O=c1ccn(COCCO)c(=S)[nH]1`, the inhibition at 10 µg/mL with Hepatitis B virus [1] was determined as 42%; in the experiment with Duck hepatitis B virus [2], 46%; with Hepatitis B virus [4], 30%; with Hepatitis B virus [6], 0%. Also, the 50% cytotoxic concentration (CC50) in the experiment with Vero and in the experiment on HepG2 was greater than 495 µM throughout. Moreover, the EC50 in the experiment with Duck hepatitis B virus [3] and in the experiment with Hepatitis B virus [5] was greater than 49.5 µM in each case.
For `O=c1[nH]c(=O)n(COCCO)cc1Cl`, the inhibition at 10 µg/mL in the experiment with Hepatitis B virus [1] was determined as 82%; with Duck hepatitis B virus [2], 94%; with Hepatitis B virus [4], 69%; in the experiment with Hepatitis B virus [6], 70%. For the same compound, the CC50 in the experiment on Vero and in the experiment with HepG2 was greater than 454 µM throughout. The EC50 in the experiment with Hepatitis B virus [7] is 4.5 µM; in the experiment on Duck hepatitis B virus [3], 0.4 µM; with Hepatitis B virus [8], 4.5 µM; in the experiment on Hepatitis B virus [5], 4.5 µM.
For the compound `Nc1ccn([C@@H]2CS[C@H](CO)O2)c(=O)n1` [LAMIVUDINE], the inhibition at 10 µg/mL turned out to be 88% with Hepatitis B virus [1], 96% in the experiment with Duck hepatitis B virus [2], 45% in the experiment with Hepatitis B virus [4] and 30% with Hepatitis B virus [6]. For the same compound, the EC50 is 0.04 µM with Duck hepatitis B virus [3], greater than 44 µM in the experiment on Hepatitis B virus [8] and 2.1 µM in the experiment with Hepatitis B virus [5].
Take `O=c1[nH]c(=O)n(COCCO)cc1C(F)(F)F`: the inhibition at 10 µg/mL with Hepatitis B virus [1] came out at 55%; in the experiment on Duck hepatitis B virus [2], 76%; in the experiment on Hepatitis B virus [4] it was 53%; with Hepatitis B virus [6], 50%. In addition, the 50% cytotoxic concentration (CC50) in the experiment on Vero and in the experiment with HepG2 was greater than 393 µM throughout. For the same compound, the concentration for a half-maximal effect (EC50) in the experiment with Hepatitis B virus [7] turned out to be 39.3 µM; in the experiment with Duck hepatitis B virus [3], 3.9 µM; with Hepatitis B virus [8], 39.3 µM; with Hepatitis B virus [5], 19.6 µM.
For `COC(=O)c1cc(=O)[nH]c(=O)n1COCCO`, the inhibition at 10 µg/mL with Hepatitis B virus [1] was found to be 60%; with Duck hepatitis B virus [2], 56%; with Hepatitis B virus [4], 0%; with Hepatitis B virus [6], 0%. The 50% cytotoxic concentration (CC50) in the experiment with Vero and in the experiment on HepG2 was greater than 409 µM in each case. Also, the EC50 with Duck hepatitis B virus [3] and in the experiment with Hepatitis B virus [5] was 40.9 µM throughout.
Take `O=c1[nH]c(=O)n(COCCO)cc1[N+](=O)[O-]`: the inhibition at 10 µg/mL with Hepatitis B virus [1] was 54%; with Duck hepatitis B virus [2], 53%; in the experiment with Hepatitis B virus [4], 30%; in the experiment on Hepatitis B virus [6], 0%. For the same compound, the values for the EC50 in the experiment on West Nile virus, in the experiment with Duck hepatitis B virus [3] and with Hepatitis B virus [5] were greater than 134 µM, 43.2 µM and 43.2 µM, respectively. The CC50 with Vero and in the experiment with HepG2 was greater than 432 µM throughout.
In the case of `CCOC(=O)c1cn(COCCO)c(=S)[nH]c1=O`, the inhibition at 10 µg/mL with Hepatitis B virus [1] amounted to 50%; in the experiment on Duck hepatitis B virus [2] it was 53%; with Hepatitis B virus [4] it was 20%; with Hepatitis B virus [6], 0%. The CC50 in the experiment with Vero and in the experiment with HepG2 was greater than 364 µM each time. In addition, the EC50 in the experiment on Duck hepatitis B virus [3] was 36.4 µM; in the experiment on Hepatitis B virus [5], 18.2 µM.
Consider `CCc1cn(COCCO)c(=S)[nH]c1=O`, for which the inhibition at 10 µg/mL in the experiment on Hepatitis B virus [1] was 40%; with Duck hepatitis B virus [2], 45%; in the experiment with Hepatitis B virus [4], 20%; in the experiment on Hepatitis B virus [6], 40%. The CC50 in the experiment with Vero and with HepG2 was greater than 478 µM each time. The EC50 in the experiment on Hepatitis B virus [7], in the experiment on Duck hepatitis B virus [3] and in the experiment on Hepatitis B virus [5] was greater than 47.8 µM in each case.
Take `Cc1c(I)c(=O)[nH]c(=O)n1COCCO`: the inhibition at 10 µg/mL in the experiment on Hepatitis B virus [1] was determined as 53%; in the experiment on Duck hepatitis B virus [2] it was 51%; in the experiment with Hepatitis B virus [4], 30%; with Hepatitis B virus [6] it was 25%. The CC50 with Vero and in the experiment with HepG2 was greater than 306 µM throughout. Also, the EC50 in the experiment with Duck hepatitis B virus [3] and in the experiment with Hepatitis B virus [5] was 30.6 µM throughout.
Consider `Nc1nc(NC2CC2)c2ncn([C@H]3C=C[C@@H](CO)C3)c2n1` [ABACAVIR], for which the EC50 in the experiment on Hepatitis B virus [7] and with Hepatitis B virus [8] was 3.4 µM in each case. In addition, the inhibition at 10 µg/mL was 80% in the experiment on Hepatitis B virus [4] and 72% with Hepatitis B virus [6].
Take `Cc1cc(=O)[nH]c(=O)n1COCCO`: the inhibition at 10 µg/mL with Hepatitis B virus [1] turned out to be 55%; with Duck hepatitis B virus [2], 60%; in the experiment with Hepatitis B virus [4] it was 30%; in the experiment with Hepatitis B virus [6] it was 0%. For the same compound, the 50% cytotoxic concentration (CC50) in the experiment on Vero and in the experiment with HepG2 was greater than 500 µM each time. The concentration for a half-maximal effect (EC50) in the experiment with Duck hepatitis B virus [3] and with Hepatitis B virus [5] was 25 µM in each case.
In the case of `O=c1[nH]c(=O)n(COCCO)cc1Br`, the inhibition at 10 µg/mL in the experiment with Hepatitis B virus [1] was 60%; in the experiment on Duck hepatitis B virus [2], 89%; with Hepatitis B virus [4] it was 67%; in the experiment with Hepatitis B virus [6], 73%. Further, the cytotoxic concentration (CC50) in the experiment with Vero and with HepG2 was greater than 377 µM each time. The EC50 amounted to 3.7 µM in the experiment with Hepatitis B virus [7], 3.7 µM with Duck hepatitis B virus [3], 18.5 µM with Hepatitis B virus [8] and 18.5 µM in the experiment with Hepatitis B virus [5].
For `O=c1[nH]c(=O)n(COCCO)cc1I`, the inhibition at 10 µg/mL in the experiment with Duck hepatitis B virus [2] is 50%. The CC50 in the experiment with Vero and in the experiment on HepG2 was greater than 320 µM throughout. Besides, in the experiment with Duck hepatitis B virus [3], the concentration for a half-maximal effect (EC50) was found to be 32 µM.
On to `O=c1cnn(COCCO)c(=O)[nH]1`, for which the inhibition at 10 µg/mL with Hepatitis B virus [1] and in the experiment on Duck hepatitis B virus [2] was 25% throughout. Further, the 50% cytotoxic concentration (CC50) in the experiment on Vero and in the experiment on HepG2 was greater than 534 µM in each case. In addition, the 50% effective concentration (EC50) in the experiment on Duck hepatitis B virus [3] and in the experiment on Hepatitis B virus [5] was greater than 53 µM in each case.
On to `O=c1[nH]c(=O)n(COCCO)cc1CO`, for which the inhibition at 10 µg/mL was determined as 50% with Hepatitis B virus [1], 55% with Duck hepatitis B virus [2], 0% with Hepatitis B virus [4] and 30% with Hepatitis B virus [6]. In addition, the cytotoxic concentration (CC50) in the experiment with Vero and with HepG2 was greater than 476 µM in each case. The results for the EC50 in the experiment with Duck hepatitis B virus [3] and in the experiment on Hepatitis B virus [5] were 47.6 µM and 23.8 µM, respectively.
